From patent US4323567A, “Arylmalonamido-1-oxadethiacephalosporins” (priority 1976, dated 1982)
≈ marks a conversion by molar mass, not a printed value. Like-named read-outs stand apart in the source and are kept apart here.

Tests used:
Assay in all cases: Minimal inhibitory concentration, nutrient agar plate
[1] = test system: Pseudomonas aeruginosa Denken; format: cell-based
[2] = test system: E. coli 377; format: cell-based, Escherichia coli
[3] = test system: Proteus mirabilis PR-4; format: cell-based
[4] = test system: E. coli JC-2; format: cell-based; settings: Escherichia coli
[5] = test system: Ps. aeruginosa 24; format: cell-based, Pseudomonas aeruginosa
[6] = test system: Klebsiella sp. 363; format: cell-based
[7] = test system: E. coli 73; format: cell-based, Escherichia coli
[8] = test system: Enterobacter cloacae 233; format: cell-based
[9] = test system: P. vulgaris CN-329; format: cell-based; settings: Proteus vulgaris
[10] = test system: Ps. aeruginosa 25619; format: cell-based, Pseudomonas aeruginosa
[11] = test system: P. morganii No. 9; format: cell-based, Proteus morganii; settings: Morganella morganii
[12] = test system: Serratia marsescens 13880; format: cell-based
[13] = test system: Klebsiella pneumoniae; format: cell-based
[14] = test system: P. vulgaris No. 3; format: cell-based; settings: Proteus vulgaris
[15] = test system: Escherichia coli H; format: cell-based
[16] = ester, in the presence of 5% horse serum, sodium salt, inoculum size 10^8, pH 7.0, read-out: Minimal inhibitory concentration
[17] = Escherichia coli, 377, ester, in the presence of 5% horse serum, sodium salt, inoculum size 10^8, pH 7.0, read-out: Minimal inhibitory concentration
[18] = PR4, ester, in the presence of 5% horse serum, sodium salt, inoculum size 10^8, pH 7.0, read-out: Minimal inhibitory concentration
[19] = JC2, ester, in the presence of 5% horse serum, sodium salt, inoculum size 10^8, pH 7.0, read-out: Minimal inhibitory concentration
[20] = Pseudomonas aeruginosa, 24, ester, in the presence of 5% horse serum, sodium salt, inoculum size 10^8, pH 7.0, read-out: Minimal inhibitory concentration
[21] = SP.363, ester, in the presence of 5% horse serum, sodium salt, inoculum size 10^8, pH 7.0, read-out: Minimal inhibitory concentration
[22] = Escherichia coli, 73, ester, in the presence of 5% horse serum, sodium salt, inoculum size 10^8, pH 7.0, read-out: Minimal inhibitory concentration
[23] = Enterobacter cloacae, 233, ester, in the presence of 5% horse serum, sodium salt, inoculum size 10^8, pH 7.0, read-out: Minimal inhibitory concentration
[24] = CN329, ester, in the presence of 5% horse serum, sodium salt, inoculum size 10^8, pH 7.0, read-out: Minimal inhibitory concentration
[25] = Pseudomonas aeruginosa, 25619, ester, in the presence of 5% horse serum, sodium salt, inoculum size 10^8, pH 7.0, read-out: Minimal inhibitory concentration
[26] = NO.9, ester, in the presence of 5% horse serum, sodium salt, inoculum size 10^8, pH 7.0, read-out: Minimal inhibitory concentration
[27] = Serratia, 13880, ester, in the presence of 5% horse serum, sodium salt, inoculum size 10^8, pH 7.0, read-out: Minimal inhibitory concentration
[28] = NO.3, ester, in the presence of 5% horse serum, sodium salt, inoculum size 10^8, pH 7.0, read-out: Minimal inhibitory concentration
[29] = as sodium salt, inoculum size 10^8, pH 7.0, read-out: Minimal inhibitory concentration
[30] = Escherichia coli, 377, as sodium salt, inoculum size 10^8, pH 7.0, read-out: Minimal inhibitory concentration
[31] = PR4, as sodium salt, inoculum size 10^8, pH 7.0, read-out: Minimal inhibitory concentration
[32] = JC2, as sodium salt, inoculum size 10^8, pH 7.0, read-out: Minimal inhibitory concentration
[33] = Pseudomonas aeruginosa, 24, as sodium salt, inoculum size 10^8, pH 7.0, read-out: Minimal inhibitory concentration
[34] = SP.363, as sodium salt, inoculum size 10^8, pH 7.0, read-out: Minimal inhibitory concentration
[35] = Escherichia coli, 73, as sodium salt, inoculum size 10^8, pH 7.0, read-out: Minimal inhibitory concentration
[36] = CN329, as sodium salt, inoculum size 10^8, pH 7.0, read-out: Minimal inhibitory concentration
[37] = Pseudomonas aeruginosa, 25619, as sodium salt, inoculum size 10^8, pH 7.0, read-out: Minimal inhibitory concentration
[38] = NO.9, as sodium salt, inoculum size 10^8, pH 7.0, read-out: Minimal inhibitory concentration
[39] = Serratia, 13880, as sodium salt, inoculum size 10^8, pH 7.0, read-out: Minimal inhibitory concentration
[40] = NO.3, as sodium salt, inoculum size 10^8, pH 7.0, read-out: Minimal inhibitory concentration
[41] = Enterobacter cloacae, 233, as sodium salt, inoculum size 10^8, pH 7.0, read-out: Minimal inhibitory concentration
[42] = pH 7, read-out: Minimal inhibitory concentration

| SMILES | MIC [1, 29] | MIC [2, 30] | MIC [3, 31] | MIC [4, 32] | MIC [5, 33] | MIC [6, 34] | MIC [7, 35] | MIC [9, 36] | MIC [10, 37] | MIC [11, 38] | MIC [12, 39] | MIC [13, 29] | MIC [14, 40] | MIC [15, 29] | MIC [8, 41] | also measured |
| --- | --- | --- | --- | --- | --- | --- | --- | --- | --- | --- | --- | --- | --- | --- | --- | --- |
| CO[C@@]1(NC(=O)C(C(=O)Oc2ccc3c(c2)CCC3)c2ccc(O)cc2)C(=O)N2C(C(=O)O)=C(CSc3nnnn3C)CO[C@@H]21 (stereo partly drawn) [III-16, 7β-[α-P-hydroxyphenyl-α-(5-indanyl)oxycarvonylacetamido]-7β-methoxy-3-(1-methyltetrazol-5-yl)thiomethyl-1-oxadethia-3-cephem-4-carboxylic acid] | – | – | – | – | – | – | – | – | – | – | – | – | – | – | – | MIC [1, 16]: 100 µg/mL; MIC [2, 17]: 0.2 µg/mL; MIC [3, 18]: 0.39 µg/mL; MIC [4, 19]: 0.02 µg/mL; MIC [5, 20]: 25 µg/mL; MIC [6, 21]: 0.2 µg/mL; MIC [7, 22]: 0.78 µg/mL; MIC [8, 23]: 0.39 µg/mL; MIC [9, 24]: 0.78 µg/mL; MIC [10, 25]: 12.5 µg/mL; MIC [11, 26]: 0.2 µg/mL; MIC [12, 27]: 0.39 µg/mL; MIC [13, 16]: 0.2 µg/mL; MIC [14, 28]: 0.39 µg/mL; MIC [15, 16]: 0.1 µg/mL |
| CO[C@@]1(NC(=O)C(C(=O)O)c2ccc(O)cc2)C(=O)N2C(C(=O)O)=C(CSc3nnnn3C)CO[C@@H]21 (stereo partly drawn) [III-15, 7β-(α-carboxy-α-p-hydroxyphenylacetamido)-7α-methoxy-3-(1-methyltetrazol-5-yl)thiomethyl-1-oxadethia-3-cephem-4-carboxylic acid] | 100 µg/mL | 0.39 µg/mL | 0.39 µg/mL | 0.02 µg/mL | 50 µg/mL | 0.1 µg/mL | 0.78 µg/mL | 0.39 µg/mL | 6.25 µg/mL | 0.39 µg/mL | 1.56 µg/mL | 0.2 µg/mL | 0.39 µg/mL | 0.1 µg/mL | – | – |
| CO[C@@]1(NC(=O)C(C(=O)Oc2ccc3c(c2)CCC3)c2ccccc2)C(=O)N2C(C(=O)O)=C(CSc3nnnn3C)CO[C@@H]21 (stereo partly drawn) [III-24, 7β-[α-(indan-5-yl)oxycarbonyl-α-phenylacetamido]-7α-methoxy-3-(1-methyltetrazol-5-yl)thiomethyl-1-oxadethia-3-cephem-4-carboxylic acid] | – | – | – | – | – | – | – | – | – | – | – | – | – | – | – | MIC [1, 16]: 100 µg/mL; MIC [2, 17]: 0.78 µg/mL; MIC [3, 18]: 0.1 µg/mL; MIC [4, 19]: 0.01 µg/mL; MIC [5, 20]: 50 µg/mL; MIC [6, 21]: 0.05 µg/mL; MIC [7, 22]: 0.39 µg/mL; MIC [8, 23]: 0.2 µg/mL; MIC [9, 24]: 0.1 µg/mL; MIC [10, 25]: 12.5 µg/mL; MIC [11, 26]: 0.2 µg/mL; MIC [12, 27]: 0.78 µg/mL; MIC [13, 16]: 0.1 µg/mL; MIC [14, 28]: 0.39 µg/mL; MIC [15, 16]: 0.025 µg/mL |
| CC(=O)OCC1=C(C(=O)O)N2C(=O)[C@@H](NC(=O)Cc3cccs3)[C@H]2SC1 [Cefalotin, reference compound] | > 100 µg/mL | > 100 µg/mL | 3.2 µg/mL | 12.5 µg/mL | > 100 µg/mL | > 100 µg/mL | > 100 µg/mL | > 100 µg/mL | > 100 µg/mL | > 100 µg/mL | > 100 µg/mL | 1.6 µg/mL | > 100 µg/mL | 3.2 µg/mL | > 100 µg/mL | – |
| CO[C@@]1(NC(=O)C(C(=O)O)c2ccccc2)C(=O)N2C(C(=O)O)=C(CSc3nnnn3C)CO[C@@H]21 (stereo partly drawn) [III-13, 7β-(α-carboxy-α-phenylacetamido)-7α-methoxy-3-(1-methyltetrazol-5-yl)thiomethyl-1-oxadethia-3-cephem-4-carboxylic acid] | 100 µg/mL | 0.2 µg/mL | 0.2 µg/mL | 0.01 µg/mL | 50 µg/mL | 0.05 µg/mL | 0.39 µg/mL | 0.1 µg/mL | 12.5 µg/mL | 0.1 µg/mL | 0.39 µg/mL | 0.1 µg/mL | 0.2 µg/mL | 0.025 µg/mL | 0.2 µg/mL | – |
| CO[C@@]1(NC(=O)C(C(=O)O)c2ccc(OC(=O)NC(N)=O)cc2)C(=O)N2C(C(=O)O)=C(CSc3nnnn3C)CO[C@@H]21 (stereo partly drawn) [III-27, 7β-(α-p-ureidocarbonyloxyphenyl-α-carboxyacetamido)-7α-methoxy-3-(1-methyltetrazol-5-yl)thiomethyl--oxadethia-3-cephem-4-carboxylic acid] | – | – | – | – | – | – | – | – | – | – | – | – | – | – | – | MIC [1, 42]: > 100 µg/mL; MIC ([2]; Escherichia coli, 377, pH 7, read-out: Minimal inhibitory concentration): 0.78 µg/mL (≈ 1.29 µM); MIC ([3]; PR4, pH 7, read-out: Minimal inhibitory concentration): 0.2 µg/mL (≈ 0.33 µM); MIC ([4]; JC2, pH 7, read-out: Minimal inhibitory concentration): 0.2 µg/mL (≈ 0.33 µM); MIC ([5]; Pseudomonas aeruginosa, 24, pH 7, read-out: Minimal inhibitory concentration): 50 µg/mL (≈ 82.4 µM); MIC ([6]; SP.363, pH 7, read-out: Minimal inhibitory concentration): 0.2 µg/mL (≈ 0.33 µM); MIC ([7]; Escherichia coli, 73, pH 7, read-out: Minimal inhibitory concentration): 0.78 µg/mL (≈ 1.29 µM); MIC ([8]; Enterobacter cloacae, 233, pH 7, read-out: Minimal inhibitory concentration): 0.78 µg/mL (≈ 1.29 µM); MIC ([9]; CN329, pH 7, read-out: Minimal inhibitory concentration): 0.2 µg/mL (≈ 0.33 µM); MIC ([10]; Pseudomonas aeruginosa, 25619, pH 7, read-out: Minimal inhibitory concentration): 12.5 µg/mL (≈ 20.6 µM); MIC ([11]; NO.9, pH 7, read-out: Minimal inhibitory concentration): 0.2 µg/mL (≈ 0.33 µM); MIC ([12]; Serratia, 13880, pH 7, read-out: Minimal inhibitory concentration): 3.13 µg/mL (≈ 5.16 µM); MIC [13, 42]: 0.39 µg/mL (≈ 0.643 µM); MIC ([14]; NO.3, pH 7, read-out: Minimal inhibitory concentration): 0.39 µg/mL (≈ 0.643 µM); MIC [15, 42]: 0.05 µg/mL (≈ 0.0824 µM) |
| CO[C@@]1(NC(=O)C(C(=O)O)c2ccc(OC(C)=O)cc2)C(=O)N2C(C(=O)O)=C(CSc3nnnn3C)CO[C@@H]21 (stereo partly drawn) [III-14, 7β-(α-carboxy-α-p-acetoxyphenylacetamido)-7α-methoxy-3-(1-methyltetrazol-5-yl)thiomethyl-1-oxadethia-3-cephem-4-carboxylic acid] | > 100 µg/mL | 1.56 µg/mL | 0.2 µg/mL | 0.39 µg/mL | 100 µg/mL | 0.78 µg/mL | 1.56 µg/mL | 0.2 µg/mL | 25 µg/mL | 0.39 µg/mL | – | 0.39 µg/mL | 0.39 µg/mL | 0.2 µg/mL | 0.78 µg/mL | – |
| Cn1nnnc1SCC1=C(C(=O)O)N2C(=O)[C@@H](NC(=O)C(C(=O)O)c3ccc(O)cc3)[C@H]2OC1 (stereo partly drawn) [Example III-6, 7β-(α-p-hydroxyphenyl-α-carboxyacetamido)-3-(1-methyltetrazol-5-yl)thiomethyl-1-oxadethia-3-cephem-4-carboxylic acid] | > 100 µg/mL | 0.39 µg/mL | 0.78 µg/mL | 0.39 µg/mL | > 100 µg/mL | > 100 µg/mL | > 100 µg/mL | > 100 µg/mL | 6.25 µg/mL | 0.78 µg/mL | 0.78 µg/mL | 0.78 µg/mL | > 100 µg/mL | 0.2 µg/mL | 0.78 µg/mL | – |
| CO[C@@]1(NC(=O)C(C(=O)O)c2ccsc2)C(=O)N2C(C(=O)O)=C(CSc3nnnn3C)CO[C@@H]21 (stereo partly drawn) [III-19, 7β-[α-(3-thienyl)-α-carboxyacetamido]-7α-methoxy-3-(1-methyltetrazol-5-yl)thiomethyl-1-oxadethia-3-cephem-4-carboxylic acid] | 100 µg/mL | 0.1 µg/mL | 0.2 µg/mL | 0.05 µg/mL | 50 µg/mL | 0.05 µg/mL | 0.2 µg/mL | 0.1 µg/mL | 12.5 µg/mL | 0.1 µg/mL | 0.39 µg/mL | 0.2 µg/mL | 0.2 µg/mL | 0.025 µg/mL | 0.1 µg/mL | – |
| CC(=O)OCC1=C(C(=O)O)N2C(=O)[C@@H](NC(=O)Cc3cccs3)[C@H]2OC1 [(2), 7β-(2thienylacetamido)-1-oxadethiacephalosporanic acid, reference compound] | > 100 µg/mL | > 100 µg/mL | 1.56 µg/mL | 6.25 µg/mL | > 100 µg/mL | > 100 µg/mL | > 100 µg/mL | > 100 µg/mL | > 100 µg/mL | > 100 µg/mL | > 100 µg/mL | 1.56 µg/mL | – | 0.39 µg/mL | > 100 µg/mL | – |
